Patent US5972898A, “3',3-N-bis-substituted macrolide LHRH antagonists” (Abbott Laboratories, priority 1998, dated 1999)

Assays:
rat pituitary cells = target: T1, rat pituitary cells (Rattus norvegicus, UniProt P30969); assay: LH inhibition from rat pituitary cells for antagonist potency (pA2); assay type: cell-based; details: negative log of antagonist concentration shifting the leuprolide response curve to two-fold higher concentration
T1 construct: endogenous in cells; host or cells: rat pituitary cells
T1 sequence (P30969 1-327): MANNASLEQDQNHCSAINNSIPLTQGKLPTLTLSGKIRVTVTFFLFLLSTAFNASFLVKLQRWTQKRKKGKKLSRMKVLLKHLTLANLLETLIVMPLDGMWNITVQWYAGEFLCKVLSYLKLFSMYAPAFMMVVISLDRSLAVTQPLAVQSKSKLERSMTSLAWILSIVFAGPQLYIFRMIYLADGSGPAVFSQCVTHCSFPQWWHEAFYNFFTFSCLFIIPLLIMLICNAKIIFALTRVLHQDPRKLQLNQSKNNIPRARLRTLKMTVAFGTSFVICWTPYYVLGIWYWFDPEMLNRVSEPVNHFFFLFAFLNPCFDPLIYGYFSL
Method: Representative compounds of the present invention were evaluated in in vitro tests for LHRH rat pituitary receptor binding (pKI) and for LH inhibition from rat pituitary cells for antagonist potency (pA2). The tests employed the methods detailed in F. Haviv, et al. J. Med. Chem., 2340-2344 (1989). The receptor binding affinity (pKI) is the negative equilibrium dissociation constants.
The pA2 value is the negative logarithm of the concentration of antagonist which shifts the response curve produced by the agonist leuprolide to two-fold higher concentration. Leuprolide is the LHRH agonist having the structure pyro-Glu^1 -His^2 -Trp^3 -Ser^4 -Tyr^5 -D-Leu^6 -Leu^7 -Arg^8 -Pro^9 -NHEt and is disclosed and claimed in U.S. Pat. No. 4,005,063. Typically pA2 values of 7.0 or greater are indicative of good LHRH antagonist potency.

[1] = target: T2, LHRH rat pituitary receptor (Rattus norvegicus, UniProt P30969); assay: LHRH rat pituitary receptor binding (pKI); details: in vitro; for Ki: read-out: pKI (receptor binding affinity) (converted)
T2 construct: from tissue; host or cells: rat pituitary
T2 sequence (P30969 1-327): T1 sequence (P30969 1-327)
Method: Representative compounds of the present invention were evaluated in in vitro tests for LHRH rat pituitary receptor binding (pKI) and for LH inhibition from rat pituitary cells for antagonist potency (pA2). […] The receptor binding affinity (pKI) is the negative equilibrium dissociation constants.

Molecule	pA2 (rat pituitary cells)	pKI (receptor binding affinity) [1]	Kb (rat pituitary cells)	Ki [1]
3',3'-N-Bisdesmethyl-3',3'-N-biscyclobutyl-11-deoxy-11-[carboxy-(3,4-difluorophenethylamino)]-6-O-methyl-erythromycin A 11,12-(cyclic carbamate) [Example 18]	8.34	9.40	–	–
CC[C@H]1OC(=O)[C@H](C)[C@@H](O[C@H]2C[C@@](C)(OC)[C@@H](O)[C@H](C)O2)[C@H](C)[C@@H](O[C@@H]2O[C@H](C)C[C@H](N(C3CCC3)C3CCC3)[C@H]2O)[C@](C)(OC)C[C@@H](C)C(=O)[C@H](C)[C@H]2N(CCc3ccc(Cl)c(Cl)c3)C(=O)O[C@]12C [Example 2]	–	–	5.37 nM	3.16 nM
CC[C@H]1OC(=O)[C@H](C)[C@@H](O[C@H]2C[C@@](C)(OC)[C@@H](O)[C@H](C)O2)[C@H](C)[C@@H](O[C@@H]2O[C@H](C)C[C@H](N(C3CCC3)C3CCC3)[C@H]2O)[C@](C)(OC)C[C@@H](C)C(=O)[C@H](C)[C@H]2N(CCc3ccc(Cl)cc3)C(=O)O[C@]12C [Example 4, 3',3'-N-Bisdesmethyl-3',3'-N-biscyclobutyl-11-deoxy-11-[carboxy-(4-chlorophenethylamino)]-6-O-methyl-erythromycin A 11,12-(cyclic carbamate)]	–	–	0.126 nM	2.4 nM
CC[C@H]1OC(=O)[C@H](C)[C@@H](O[C@H]2C[C@@](C)(OC)[C@@H](O)[C@H](C)O2)[C@H](C)[C@@H](O[C@@H]2O[C@H](C)C[C@H](N(C(C)C)C3CCC3)[C@H]2O)[C@](C)(OC)C[C@@H](C)C(=O)[C@H](C)[C@H]2N(CCc3ccc(Cl)cc3)C(=O)O[C@]12C [Example 5, 3',3'-N-Bisdesmethyl-3'-N-cyclobutyl-3'-N-isopropyl-11-deoxy-11-[carboxy-(4-chlorophenethylamino)]-6-O-methyl-erythromycin A 11,12-(cyclic carbamate)]	–	–	0.832 nM	0.832 nM
CC[C@H]1OC(=O)[C@H](C)[C@@H](O[C@H]2C[C@@](C)(OC)[C@@H](O)[C@H](C)O2)[C@H](C)[C@@H](O[C@@H]2O[C@H](C)C[C@H](N(CC3CC3)CC3CC3)[C@H]2O)[C@](C)(OC)C[C@@H](C)C(=O)[C@H](C)[C@H]2N(CCc3ccc(Cl)c(F)c3)C(=O)O[C@]12C [Example 13, 3',3'-N-Bisdesmethyl-3',3'-N-biscyclopropylmethyl-11-deoxy-11-[carboxy-(4-chloro-3-fluorophenethylamino)]-6-O-methyl-erythromycin A 11,12-(cyclic carbamate)]	–	–	0.295 nM	1.15 nM
CC[C@H]1OC(=O)[C@H](C)[C@@H](O[C@H]2C[C@@](C)(OC)[C@@H](O)[C@H](C)O2)[C@H](C)[C@@H](O[C@@H]2O[C@H](C)C[C@H](N(C3CCC3)C3CCC3)[C@H]2O)[C@](C)(OC)C[C@@H](C)C(=O)[C@H](C)[C@H]2N(CCc3ccc(F)c(Cl)c3)C(=O)O[C@]12C [Example 14, 3',3'-N-Bisdesmethyl-3',3'-N-biscyclobutyl-11-deoxy-11-[carboxy-(3-chloro-4-fluorophenethylamino)]-O-methyl-erythromycin A 11,12-(cyclic carbamate)]	–	–	0.759 nM	0.251 nM
CC[C@H]1OC(=O)[C@H](C)[C@@H](O[C@H]2C[C@@](C)(OC)[C@@H](O)[C@H](C)O2)[C@H](C)[C@@H](O[C@@H]2O[C@H](C)C[C@H](N(CC3CC3)CC3CC3)[C@H]2O)[C@](C)(OC)C[C@@H](C)C(=O)[C@H](C)[C@H]2N(CCc3ccc(F)c(F)c3)C(=O)O[C@]12C [Example 17, 3',3'-N-Bisdesmethyl-3',3'-N-biscyclopropylmethyl-11-deoxy-11-[carboxy-(3,4-difluorophenethylamino)]-6-O-methyl-erytromycin A 11,12-(cyclic carbamate)]	–	–	1.55 nM	3.16 nM
